Paper PMC2788660 (Journal of medicinal chemistry, 2009)
Square brackets hold non-standard residues; d marks the D form. Peptide text beside a SMILES is read from it. * marks the point of attachment. 1Nal = N[C@@H](Cc1cccc2ccccc12)C(=O)O; Asu = N[C@@H](CCCCCC(=O)O)C(=O)O; β3hL = CC(C)C[C@H](N)CC(=O)O; CH2CH2COOH = O=C(O)CC*

Experiments:
HDAC6 = target: T1, HDAC6 (Homo sapiens, UniProt Q9UBN7)
T1 sequence (Q9UBN7 1-1215): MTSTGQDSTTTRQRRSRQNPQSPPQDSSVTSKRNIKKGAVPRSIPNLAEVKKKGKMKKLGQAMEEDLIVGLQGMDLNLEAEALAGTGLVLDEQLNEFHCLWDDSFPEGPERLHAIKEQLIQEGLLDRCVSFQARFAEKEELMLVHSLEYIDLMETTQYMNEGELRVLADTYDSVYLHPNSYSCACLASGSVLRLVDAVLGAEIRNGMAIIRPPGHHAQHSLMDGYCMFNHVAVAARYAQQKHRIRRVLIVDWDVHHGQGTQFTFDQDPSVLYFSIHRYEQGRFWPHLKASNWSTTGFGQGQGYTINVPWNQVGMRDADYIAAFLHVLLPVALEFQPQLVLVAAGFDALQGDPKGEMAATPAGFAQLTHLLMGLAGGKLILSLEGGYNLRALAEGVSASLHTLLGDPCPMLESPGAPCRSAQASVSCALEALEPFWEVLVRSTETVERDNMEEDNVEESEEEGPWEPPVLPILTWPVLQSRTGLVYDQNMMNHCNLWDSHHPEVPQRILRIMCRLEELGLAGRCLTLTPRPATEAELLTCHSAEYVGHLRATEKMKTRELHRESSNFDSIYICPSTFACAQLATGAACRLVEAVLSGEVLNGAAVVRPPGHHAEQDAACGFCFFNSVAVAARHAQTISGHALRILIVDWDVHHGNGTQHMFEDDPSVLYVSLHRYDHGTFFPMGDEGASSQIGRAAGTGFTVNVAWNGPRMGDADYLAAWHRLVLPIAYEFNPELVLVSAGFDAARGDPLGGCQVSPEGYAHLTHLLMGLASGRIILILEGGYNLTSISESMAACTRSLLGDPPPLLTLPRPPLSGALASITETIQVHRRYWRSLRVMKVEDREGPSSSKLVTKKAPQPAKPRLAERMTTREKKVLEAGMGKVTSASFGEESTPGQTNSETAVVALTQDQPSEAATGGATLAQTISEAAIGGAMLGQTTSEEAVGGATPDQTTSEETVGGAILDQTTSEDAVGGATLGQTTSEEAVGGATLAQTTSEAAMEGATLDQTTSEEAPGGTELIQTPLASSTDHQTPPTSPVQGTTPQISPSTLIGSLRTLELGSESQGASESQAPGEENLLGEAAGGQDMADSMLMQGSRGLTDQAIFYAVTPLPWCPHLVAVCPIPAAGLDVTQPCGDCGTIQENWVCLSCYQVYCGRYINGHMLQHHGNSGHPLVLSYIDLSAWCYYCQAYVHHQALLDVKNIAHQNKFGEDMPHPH

HDAC1 = HDAC1 (Homo sapiens, UniProt Q13547); settings: relative to 3a
Chain of HDAC1 (Q13547 whole entry): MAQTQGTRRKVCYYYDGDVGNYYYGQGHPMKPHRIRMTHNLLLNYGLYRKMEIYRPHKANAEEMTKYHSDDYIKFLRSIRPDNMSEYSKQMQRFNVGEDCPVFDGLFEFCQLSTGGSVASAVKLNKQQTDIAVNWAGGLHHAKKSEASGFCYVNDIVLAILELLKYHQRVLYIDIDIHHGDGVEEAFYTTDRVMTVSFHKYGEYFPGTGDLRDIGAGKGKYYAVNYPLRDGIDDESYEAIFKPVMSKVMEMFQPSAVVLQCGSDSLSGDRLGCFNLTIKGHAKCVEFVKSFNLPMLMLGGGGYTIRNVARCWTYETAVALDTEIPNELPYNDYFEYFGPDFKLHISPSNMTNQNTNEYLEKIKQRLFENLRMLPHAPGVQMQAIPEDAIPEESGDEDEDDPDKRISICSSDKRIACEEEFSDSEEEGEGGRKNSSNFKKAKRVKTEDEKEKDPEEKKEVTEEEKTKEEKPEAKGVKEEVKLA

HDAC8 = target: T2, HDAC8 (Homo sapiens, UniProt Q9BY41); settings: relative to 3a
T2 sequence (Q9BY41 1-377): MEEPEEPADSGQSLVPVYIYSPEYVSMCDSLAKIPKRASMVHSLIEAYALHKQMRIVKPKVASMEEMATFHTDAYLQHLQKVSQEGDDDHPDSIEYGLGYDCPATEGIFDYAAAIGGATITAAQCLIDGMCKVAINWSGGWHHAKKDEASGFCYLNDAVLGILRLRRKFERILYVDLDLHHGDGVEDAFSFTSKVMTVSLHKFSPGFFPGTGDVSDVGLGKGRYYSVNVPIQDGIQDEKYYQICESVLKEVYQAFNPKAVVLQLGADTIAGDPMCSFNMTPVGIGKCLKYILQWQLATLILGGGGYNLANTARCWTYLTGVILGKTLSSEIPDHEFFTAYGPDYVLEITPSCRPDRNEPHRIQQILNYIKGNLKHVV

`CCC(=O)CCCCC[C@@H]1NC(=O)[C@H]2CCCCN2C(=O)[C@H]([C@@H](C)CC)NC(=O)[C@H](Cc2cn(OC)c3ccccc23)NC1=O` [1a, apicidin, reference compound] was tested, and the “HDAC6 inhibition (in words)” value (HDAC6) was “did not inhibit HDAC6 in the concentration range tested”.
In the case of `CC(C)C[C@H]1CC(=O)N[C@@H](C)C(=O)N[C@@H](CSCCC(=O)O)C(=O)N[C@@H](Cc2c[nH]c3ccccc23)C(=O)N1` [4c] (cyclo(C(CH2CH2COOH)W[β3hL]A); ring closure inferred), the “decrease in potency against HDAC1, 3a vs. 4c” value (HDAC1) is reported as ~ 40 fold and the “decrease in potency against HDAC8, 3a vs. 4c” value (HDAC8) is reported as ~ 3 fold.
`CC(C)C[C@H]1CC(=O)N[C@@H](CCCNC(=N)N)C(=O)N[C@@H](CCCCCC(=O)O)C(=O)N[C@@H](Cc2cccc3ccccc23)C(=O)N1` [compound 17, c[Asu-Nal-β^3Leu-Arg]] (cyclo([Asu][1Nal][β3hL]R); ring closure inferred) was tested, and the “fold more potent against HDAC6 compared to Ala–aa4 analog (8b)” value (HDAC6) was 3–4 fold.
